Data on three molecules can be found in patent US20250049034A1, “Composition” (Syngenta Crop Protection AG, priority 2021, published 2025).

The data set can be described thus: Chemical stability of the active ingredients in the composition. In kind it is physicochemical. Particulars: in Composition 1. As to the method:
The stability of the active ingredients per se were also measured under a wide variation of temperature conditions.

Regarding `CCOc1nc(F)cc2nc(S(=O)(=O)Nc3c(Cl)cccc3C(=O)OC)nn12` [Cloransulam-methyl], the active ingredient content by setting is: (2 wks@ 54° C.) 0.70 % wt; (2 wks@ −18° C.) 0.76 % wt; (Initial) 0.77 % wt.
For `CCc1cccc(C)c1N(C(=O)CCl)C(C)COC` (stereo not drawn) [S-metalachlor, S-metolachlor], the active ingredient content is, setting by setting: (2 wks@ 54° C.) 38.4 % wt; (2 wks@ −18° C.) 38.2 % wt; (Initial) 38.5 % wt.
As for `CSc1nnc(C(C)(C)C)c(=O)n1N` [Metribuzin], the active ingredient content is 7.1 % wt (2 wks@ 54° C.), 7.1 % wt (2 wks@ −18° C.) and 7.2 % wt (Initial).
